Columns and labels:
[1] = test system: traumatic brain injury (TBI) rats; assay: Water maze test (acquisition and probe trial) 12 weeks after fluid-percussion brain injury; format: in vivo, Sprague Dawley rats
Excerpt: (§1) Sprague Dawley rats were subjected to moderate parasagittal fluid-percussion brain injury using methods described in Atkins et al, J Neurosci Res 90, 1861-71 (2012). Adult male Sprague Dawley rats (280-300 g; Charles Rivers Laboratories) were anesthetized with 3% isoflurane, 70% N2O, and 30% O2 and received a 4.8-mm craniotomy (3.8 mm posterior to bregma, 2.5 mm lateral to the midline) over the right parietal cortex. Twenty-four hours after the craniotomy, the animals were re-anesthetized (3% isoflurane, 70% N2O, and 30% O2); immobilized with pancuronium bromide (1.0 mg/kg); and mechanically ventilated with 1% isoflurane, 70% N2O, and 30% O2. When physiological measurements had stabilized, the animals received a fluid-percussion pulse (1.8-2.2 atmospheres, 14-16 msec) or sham injury with the fluid-percussion brain injury device. Blood gases, blood pH, and mean arterial blood pressure were monitored for 30 min prior to the fluid percussion brain injury or sham surgery and for up to 1 hr post-injury to maintain normal levels. Injured and sham injured rats were coded such that the investigator assessing the behavior of the animals would not know their injury status.
2-(4-(2-(5-chlorothiophen-2-yl)-5-ethyl-6-methylpyrimidin-4-yl)amino)phenyl)acetic acid (Compound 33) was dissolved in 100% dimethylsulfoxide (DMSO) at 1 mg/ml and then diluted 20 fold into 0.9% sodium chloride (saline) with 2 molar equivalents of sodium hydroxide (0.258 mM) to yield a final concentration of Compound 33 at 0.05 mg/ml in 5% DMSO saline. Rats treated with vehicle received 5% DMSO in saline. Four treatment groups were studied; TBI rats treated with vehicle, TBI rats treated with Compound 33, sham rats treated with vehicle, and sham rats treated with Compound 33. Compound 33 and vehicle were delivered by intraperitoneal injection. Compound 33 was administered at a dose of 0.3 mg/kg. […] At 12 weeks after surgery, the rats were administered either vehicle or Compound 33 only 30 minutes prior to training on the water maze test.
Twelve weeks after surgery, rats were tested for cognitive ability using the water maze test. Animals received vehicle or Compound 33 (0.3 mg/kg, i.p.) 30 min prior to water maze training. The circular pool (122 cm diameter, 60 cm deep) was filled with opaque water at 24° C. and surrounded by distinct, invariant extramaze cues. An escape platform, 9.3 cm in diameter, was submerged 1.5 cm below the water surface. Animals received four 60 s acquisition trials per day for 4 days with inter-trial intervals of 4 min. […] Path length to reach the platform, escape latency, and swim speed were analyzed with EthoVision software (Noldus Information Technology). […]

[2] = test system: traumatic brain injury (TBI) rats; assay: Working memory version of the water maze task, week 14 post-surgery; format: in vivo, Sprague Dawley rats; settings: 0.3 mg/kg 30 min prior to testing
Excerpt: as §1, with “status. […]” for “status.”
To assess working memory in TBI animals, a working memory version of the water maze task was used on week 14 post-surgery. […] Escape latency differences between the first location trial and subsequent match trial were measured.

[3] = test system: subjects suffering a brain injury; settings: administered 1 hour after the injury; cited from earlier work
[4] = test system: normal uninjured brains; settings: cited from earlier work
[5] = test system: brain injury; settings: within 30 minutes of a brain injury; cited from earlier work
[6] = 0.3 mg/kg i.p. 30 min prior to training, 4 training days, 12 weeks after surgery

CCc1c(C)nc(-c2ccc(Cl)s2)nc1Nc1ccc(CC(=O)O)cc1 [Compound 33]
escape latency to reach the hidden platform during acquisition [1, 6]: progressive decrease | path length to reach the hidden platform during acquisition [1, 6]: progressive decrease | indices of learning (escape latency and path length) on the 4th day of acquisition ([1]; 0.3 mg/kg i.p., 4th day of acquisition, versus sham animals): comparable to sham animals treated with vehicle or Compound 33 | time in the target quadrant, probe trial (retention) ([1]; 24 h after last acquisition trial, platform removed, no drug on probe day): spent less time in the target quadrant as compared to Compound 33-treated TBI animals | working memory (escape latency difference between location and match trial) [2]: this deficit was rescued by Compound 33 treatment

CC(=O)CCCCn1c(=O)c2c(ncn2C)n(C)c1=O [pentoxyfilline]
TNF-α [3]: reduced TNF-α | outcomes after brain injury [3]: improved outcomes

COc1ccc(C2CNC(=O)C2)cc1OC1CCCC1 (stereo not drawn) [rolipram]
learning and memory [4]: improve learning and memory | effect on brain injury [5]: exacerbates the brain injury

— patent publication US8865723B2, “Selective PDE4 B inhibition and improvement in cognition in subjects with brain injury” (Tetra Discovery Partners LLC, priority 2012, dated 2014)
